From article PMC11480511 (Scientific Reports, 2024)

Columns and labels:
Experiment in all cases: NCI single-dose growth inhibition screen
[1] = tested on: HL-60(TB); type: cell-based; conditions: Homo sapiens; Leukemia HL-60(TB); single dose 10^−5 M
[2] = tested on: K-562; type: cell-based; conditions: Homo sapiens, K562; Leukemia K-562; single dose 10^−5 M
[3] = tested on: NCI-H522; type: cell-based; conditions: Homo sapiens; Non-Small Cell Lung Cancer NCI-H522; single dose 10^−5 M
[4] = tested on: HCT-116; type: cell-based; conditions: Homo sapiens; Colon Cancer HCT-116; single dose 10^−5 M
[5] = tested on: SF-539; type: cell-based; conditions: Homo sapiens; CNS Cancer SF-539; single dose 10^−5 M
[6] = tested on: SNB-19; type: cell-based; conditions: Homo sapiens; CNS Cancer SNB-19; single dose 10^−5 M
[7] = tested on: SNB-75; type: cell-based, human; conditions: Homo sapiens, SNB-75, CNS Cancer SNB-75; single dose 10^−5 M
[8] = tested on: M14; type: cell-based; conditions: Homo sapiens; Melanoma M14; single dose 10^−5 M
Method: Following the guidelines established by the drug evaluation department of the National Cancer Institute (NCI), USA, all target compounds 3a–l were examined against 60 cancer cell lines at a single concentration of 10 µM.
The anti-cancer potential of the tested compounds was evaluated at the National cancer institute (NCI), USA, against 9 panels of 60 various cell lines derived from nine human tumours available usually at NCI library. The procedures for the screening were described in details in NCI website (dttp://www.dtp.nci.nih.gov.) and were done according to NCI protocols[60] . The anticancer screening was carried out at single dose of 10^−5 M, NCI, Bethesda, USA. The results obtained as growth inhibition (%).

[9] = tested on: MDA-MB-435; type: cell-based; conditions: Homo sapiens; Melanoma MDA-MB-435; single dose 10^−5 M
[10] = tested on: SK-MEL-2; type: cell-based; conditions: Homo sapiens; Melanoma SK-MEL-2; single dose 10^−5 M
[11] = tested on: SK-MEL-28; type: cell-based; conditions: Homo sapiens; Melanoma SK-MEL-28; single dose 10^−5 M
[12] = tested on: UACC-62; type: cell-based; conditions: Homo sapiens; Melanoma UACC-62; single dose 10^−5 M
[13] = tested on: IGROV1; type: cell-based; conditions: Homo sapiens, IGROV-1; Ovarian Cancer IGROV1; single dose 10^−5 M
[14] = tested on: RXF 393; type: cell-based; conditions: Homo sapiens; Renal Cancer RXF 393; single dose 10^−5 M
[15] = tested on: TK-10; type: cell-based; conditions: Homo sapiens; Renal Cancer TK-10; single dose 10^−5 M
[16] = tested on: UO-31; type: cell-based, human; conditions: Homo sapiens, UO-31, Renal Cancer UO-31; single dose 10^−5 M
[17] = tested on: MCF7; type: cell-based, human; conditions: Homo sapiens, MCF7, Breast Cancer MCF7; single dose 10^−5 M
[18] = tested on: BT-549; type: cell-based; conditions: Homo sapiens; Breast Cancer BT-549; single dose 10^−5 M
[19] = tested on: T-47D; type: cell-based; conditions: Homo sapiens, T47D; Breast Cancer T-47D; single dose 10^−5 M
[20] = tested on: MDA-MB-468; type: cell-based; conditions: Homo sapiens; Breast Cancer MDA-MB-468; single dose 10^−5 M

Compound	inhibition at 10 µM [1] [%]	inhibition at 10 µM [2] [%]	inhibition at 10 µM [3] [%]	inhibition at 10 µM [4] [%]	inhibition at 10 µM [5] [%]	inhibition at 10 µM [6] [%]	inhibition at 10 µM [7] [%]	inhibition at 10 µM [8] [%]	inhibition at 10 µM [9] [%]	inhibition at 10 µM [10] [%]	inhibition at 10 µM [11] [%]	inhibition at 10 µM [12] [%]	inhibition at 10 µM [13] [%]	inhibition at 10 µM [14] [%]	inhibition at 10 µM [15] [%]	inhibition at 10 µM [16] [%]	inhibition at 10 µM [17] [%]	inhibition at 10 µM [18] [%]	inhibition at 10 µM [19] [%]	inhibition at 10 µM [20] [%]
COc1cc(/C=C2\SC(=O)N(CCCC(=O)N3CCN(c4cc5c(cc4F)c(=O)c(C(=O)O)cn5C4CC4)CC3)C2=O)cc(OC)c1OC [3 g]	< 0	< 0	3.3	< 0	0.5	< 0	5.9	0.5	< 0	< 0	< 0	3.7	< 0	< 0	< 0	1.5	3.6	< 0	< 0	< 0
O=C(O)c1cn(C2CC2)c2cc(N3CCN(C(=O)CCCN4C(=O)SC(=Cc5cccc([N+](=O)[O-])c5)C4=O)CC3)c(F)cc2c1=O [3d, 1-cyclopropyl-6-fluoro-7-[4-[4-[5-[(3-nitrophenyl)methylene]-2,4-dioxo-thiazolidin-3-yl]butanoyl]piperazin-1-yl]-4-oxoquinoline-3-carboxylic acid]	< 0	< 0	20.7	< 0	9.5	1	18.2	0.8	< 0	2.9	< 0	10.3	1.6	< 0	< 0	20.7	1.9	3	< 0	0.5
COc1ccc(/C=C2\SC(=O)N(CCCC(=O)N3CCN(c4cc5c(cc4F)c(=O)c(C(=O)O)cn5C4CC4)CC3)C2=O)cc1OC [3f]	1.9	1.1	7.8	< 0	4.4	0.9	4.9	< 0	< 0	2.8	< 0	1.4	< 0	< 0	8.7	14.5	3.9	3.4	0.9	< 0
Cc1ccc(/C=C2\SC(=O)N(CCCC(=O)N3CCN(c4cc5c(cc4F)c(=O)c(C(=O)O)cn5C4CC4)CC3)C2=O)cc1 [3c]	6.2	< 0	1.7	< 0	0.9	< 0		< 0	< 0	< 0	< 0	4.2	3.2	7.2	< 0	16.5	< 0		< 0	< 0
